Reference: patent US20020169101A1, “Treatment of sexual dysfunction” (priority 1999, published 2002)

Experiments:
[1] = test system: penile intracavernosal pressure; test: Pelvic nerve-stimulated penile intracavernosal pressure in the anaesthetised rabbit model of erection; type: in vivo; conditions: Compound 3 (10 mg/kg sc) concomitant with a selective PDE5 inhibitor (1 mg/kg iv), vs Compound 3 alone, anaesthetised rabbit (FIG. 26)
Description: Male New Zealand rabbits (˜2.5kg) were pre-medicated with a combination of Medetomidine (Domitor®) 0.5 ml/kg i.m., and Ketamine (Vetalar®)) 0.25 ml/kg i.m. whilst maintaining oxygen intake via a face mask. The rabbits were tracheotomised using a PorteXTM uncuffed endotracheal tube 3 ID., connected to ventilator and maintained at a ventilation rate of 30-40 breaths per minute, with an approximate tidal volume of 18-20 ml, and a maximum airway pressure of 10 cm H2O. Anaesthesia was then switched to Isoflurane and ventilation continued with O2 at 21/min. The right marginal ear vein was cannulated using a 23G or 24G catheter, and Lactated Ringer solution perfused at 0.5 ml/min. The rabbit was maintained at 3% Isoflurane during invasive surgery, dropping to 2% for maintenance anaesthesia. The left jugular vein was exposed, isolated and then cannulated with a PVC catheter (17G) for the infusion of drugs and compounds.
The left groin area of the rabbit was shaved and a vertical incision was made approximately 5 cm in length along the thigh. […] Systolic and diastolic pressures were measured, and the mean arterial pressure calculated using the formula (diastolic x2+systolic)÷3. Heart rate was measured via the pulse oxymeter and Po-ne-mah data acquisition software system (Ponemah Physiology Platform, Gould Instrument Systems Inc). […]

[2] = test system: female rat sexual proceptivity (NMB-inhibited); test: Inhibition of female rat proceptivity by i.c.v. NMB and its antagonism; type: in vivo; conditions: progesterone 0.5 mg s.c. 4 h; NMB 100 ng i.c.v. 10 min before test in progesterone-treated rats; Compound (1) 15 mg/kg i.p. 1 h before NMB (FIG. 5)
Description: Ovariectomised female rats (Sprague Dawley, obtained from Charles River, UK) were stereotaxically implanted (coordinates 0.89 mm behind Bregma, 1.3 mm lateral and 2.5 mm vertical) with stainless steel cannulae (6 mm long, O.D. 0.75 mm), held in place with dental cement. Animals were housed in groups of three and returned to a reversed lighting system of 12 h light:dark (lights off 5.00-17.00 h). Correct placement of the cannulae was assessed post-mortem. Rats were used for tests two weeks after ovariectomy (one week after cannulation). The experiments started at least 5 h into the dark period. Forty eight hours before tests, the animals were primed with 5 μg oestradiol benzoate (OB) (s.c, in corn oil) and adapted to the apparatus (in the absence of stimuli animals) for 10 min on 2 consecutive days prior testing. The 10 min test was carried out as previously described. The difference in the percentage of time spent investigating male minus female was calculated, out of the total time spent investigating stimuli.
Progesterone (Prog, 0.5 mg/0.1 ml) was dissolved in corn oil and administered subcutaneously (s.c.), 4 h before test, to induce proceptive behaviour. Compound (1) (15 mg/kg, i.p.) was dissolved in 50% 2-hydroxypropyl-β-cyclodextrin in saline and administered 1 h before the i.c.v. administration. Neuromedin B was obtained from Bachem, UK. It was dissolved in isotonic saline and administered i.c.v. over a 30 sec period, with the aid of a pump set to deliver a flow of 10 μl/min, 10 min before tests. The dosing volume was 5 μl/rat. Each rat received a total amount of 100 ng.

SMILES	pelvic nerve-stimulated intracavernosal pressure (ICP) [1]	pelvic nerve-stimulated intracavernosal pressure (ICP) ([1]; listed as compound 3)	proceptivity (percentage of time investigating male minus female stimulus) [2]
C[C@@](Cc1c[nH]c2ccccc12)(NC(=O)Nc1ccc([N+](=O)[O-])cc1)C(=O)NCC1(c2ccc(N)cc2)CCCCC1 [Compound 3, (2S)-N-{[1-(4-aminophenyl)cyclohexyl]methyl}-3-(1H-indol-3-yl)-2-methyl-2-{[(4-nitroanilino)-carbonyl]amino}propanamide]	marked enhancement of the ICP	marked enhancement of intracavernosal pressure	–
COc1ccc(C2(CNC(=O)[C@](C)(Cc3c[nH]c4ccccc34)NC(=O)Nc3ccc([N+](=O)[O-])cc3)CCCCC2)nc1 [Compound (1), (S) 3-(1H-Indol-3-yl)-N-[1-(5-methoxy-pyridin-2-yl)-cyclohexyl-methyl]-2-methyl-2-[3-(4-nitro-phenyl)-ureido]-propionamide]	–	–	prevented the inhibitory effect of NMB
